{"source": "patent US20070243577A1", "about": "“Method for the detection of apoptosis by determining apoptosis-specific markers released into an extracellular medium through cellular release mechanisms” (Evotec OAI AG, priority 2000, published 2007)", "key": {"[1]": {"test_system": "Jurkat cells", "assay": "Extracellular release of cytochrome c into cell culture medium (immunoprecipitation and immunoblot)", "assay_type": "cell-based, human", "conditions": "for cytochrome c in the cell culture medium: 16 h, anti-CD95 mAb 1 μg/ml, etoposide 25 μg/ml, doxorubicin 2 μg/ml", "quoted_text": "5×10^6 Jurkat cells were cultured in growth medium and either left untreated (control) or stimulated for 16 h with staurosporine (stauro, 2.5 μM), anti-CD95 mAb (α-CD95, 1 μg/ml), etoposide (etopo, 25 μg/ml) or doxorubicin (doxo, 2 μg/ml). Cytochrome c was precipitated from the cell culture medium (m) and the cellular extracts (c) with antibodies against the native molecule. The immunoprecipitated material was separated by SDS-PAGE and analysed by immunoblotting.\n5×10^6 Jurkat cells were cultured in growth medium and stimulated for 15 h with the indicated concentrations of anti-CD95 mAb and staurosporine or for 24 h with the indicated concentrations of etoposide or doxorubicin. Cytochrome c was precipitated from the culture medium (m) and the cellular extracts (c) with antibodies against the native molecule. The immunoprecipitated material was separated by SDS-PAGE and analysed by immunoblotting. The quantity of cytochrome c was determined by densitometric analysis. The graphs display the amount of cytochrome c in the culture medium relative to the total amount of cytochrome c present in medium and cells.\n1×10^6 Jurkat cells were incubated with medium or staurosporine (stauro, 2.5 μM) and harvested after is the indicated time points (+). A cell culture sample prior to applying staurosporine and a cell culture sample after 15 h without the addition of staurosporine are shown for intercomparison (−). Release of cytochrome c was determined by immunoprecipitation of the medium fractions and subsequent immunoblotting. […] The amounts of cytochrome c in the supernatants indicate the absolute densitometric values.\nThe human Jurkat T-cell line and mouse L929 fibroblasts were grown at 37° C., 5% CO2, in RPMI-1640 medium supplemented with 10% heat-inactivated fetal calf serum, penicillin and streptomycin (all from GIBCO BRL). Etoposide, actinomycin D and doxorubicin were purchased from Sigma and staurosporine from Roche Diagnostics. All stimuli were dissolved in ethanol and kept at −70° C."}, "[2]": {"test_system": "L929 cells", "assay": "Extracellular release of cytochrome c into cell culture medium (immunoprecipitation and immunoblot)", "assay_type": "cell-based, mouse", "conditions": "TNF-α 10 ng/ml plus actinomycin D 1 μg/ml in presence of zVAD-fmk 100 μM, 8 h", "quoted_text": "3×10^6 L929 cells were incubated with medium or with TNF-α (10 ng/ml) plus actinomycin D (Act. D, 1 μg/ml) in the absence or presence of the caspase inhibitor zVAD-fmk (benzyloxycarbonyl-Val-Ala-Asp-fluoromethylketone, zVAD, 100 μM) for 8 h. The release of cytochrome c was determined by immunoprecipitation of culture medium (m) and for intercomparison of corresponding cellular extracts (c) and subsequent immunoblotting. Heavy and light chain of the anti-cytochrome c antibody and cytochrome c are indicated by open and closed arrowheads, respectively.\nThe human Jurkat T-cell line and mouse L929 fibroblasts were grown at 37° C., 5% CO2, in RPMI-1640 medium supplemented with 10% heat-inactivated fetal calf serum, penicillin and streptomycin (all from GIBCO BRL). […] The broad-range caspase inhibitor benzyloxycarbonyl-Val-Ala-Asp-fluoromethylketone (zVAD-fmk) was purchased from Enzyme Systems (Dublin, Calif.); all other chemicals were from Merck KG or Roth GmbH.\nTo determine the cellular cytochrome c content, cells were collected by centrifugation, washed in cold PBS and extracted in cold lysis buffer (50 mM Tris, pH 7.4, 150 mM NaCl, 1% Triton-X100 containing 3 μg/ml aprotinin, 3 μg/ml leupeptin, 3 μg/ml pepstatin and 2 mM PMSF). […] The amount of immunoprecipitated cytochrome c was determined by densitometric analysis using the NIH image software (National Institutes of Health)."}, "[3]": {"test_system": "L929 cells", "assay": "Measurement of cell death by flow cytometry (hypodiploid nuclei, PI uptake)", "assay_type": "cell-based, mouse", "conditions": "TNF-α 10 ng/ml plus actinomycin D 1 μg/ml in presence of zVAD-fmk 100 μM, 8 h", "method": "Also shown is the detection of cell death by PI (propidium iodide) uptake and of apoptosis by detecting hypodiploid nuclei, both by flow cytometry. The percentage of dead cells or apoptotic hypodiploid cells is shown on the right of the histograms. 3×10^6 L929 cells were incubated with medium or with TNF-α (10 ng/ml) plus actinomycin D (Act. D, 1 μg/ml) in the absence or presence of the caspase inhibitor zVAD-fmk (benzyloxycarbonyl-Val-Ala-Asp-fluoromethylketone, zVAD, 100 μM) for 8 h. The release of cytochrome c was determined by immunoprecipitation of culture medium (m) and for intercomparison of corresponding cellular extracts (c) and subsequent immunoblotting. […] As also shown, cell death was detected by PI (propidium iodide) uptake and apoptosis by detecting hypodiploid nuclei, both by flow cytometry. […]\nFor determination of apoptosis, Jurkat and L929 cells were seeded in microtiter plates and treated with the cytotoxic agents for the indicated time periods. […] Briefly, apoptotic nuclei were prepared by lysing cells in a hypotonic lysis buffer (1% sodium citrate, 0.1% Triton X-100, 50 μg/ml propidium iodide) and subsequently analysed by flow cytometry. In parallel, cell death as assessed by membrane damage was determined by the uptake of propidium iodide (PI, 2 μg/ml in PBS; Sigma) into non-fixed cells. […]"}, "[4]": {"test_system": "Jurkat cells", "assay": "LDH activity in the supernatant", "assay_type": "cell-based, human", "conditions": "staurosporine 2.5 μM, 15 hours", "method": "1×10^6 Jurkat cells were incubated with medium or staurosporine (stauro, 2.5 μM) and harvested after is the indicated time points (+). A cell culture sample prior to applying staurosporine and a cell culture sample after 15 h without the addition of staurosporine are shown for intercomparison (−). Release of cytochrome c was determined by immunoprecipitation of the medium fractions and subsequent immunoblotting. Heavy; and light chain of anti-cytochrome c antibody and cytochrome c are indicated by open and closed arrowheads, respectively. The LDH activity in the supernatant of apoptotic cells represents the percentage of total LDH activity in the sample. The amounts of cytochrome c in the supernatants indicate the absolute densitometric values. The release of cytochrome c from the cell is a rapid process. Already one hour after apoptosis induction with staurosporine cytochrome c could be detected in the extracellular medium. […] Only about 20% of the total LDH were detected in the supernatants of apoptotic cells after 15 hours of staurosporine treatment.\nCell viability was also determined by monitoring the release of the cytoplasmic enzyme lactate dehydrogenase (LDH), an indicator for cell death. In order to obtain total LDH activity, cells were lysed with 1% Triton X-100. […]"}, "[5]": {"test_system": "Jurkat cells", "assay": "Measurement of cell death by flow cytometry (hypodiploid nuclei, PI uptake)", "assay_type": "cell-based, human", "quoted_text": "The percentage of apoptotic hypodiploid cells is shown on the right of the histograms. […] 1×10^6 Jurkat cells were incubated with medium or staurosporine (stauro, 2.5 μM) and harvested after the indicated time points.\nAlso shown is the detection of cell death by PI (propidium iodide) uptake and of apoptosis by detecting hypodiploid nuclei, both by flow cytometry. The percentage of dead cells or apoptotic hypodiploid cells is shown on the right of the histograms. 1×10^6 cells were cultured in normal growth medium (control), or in the presence of staurbsporine (stauro, 2.5 μM) or the indicated concentrations of H2O2 for 18 h. […] As also shown, cell death was detected by PI (propidium iodide) uptake and apoptosis by detecting hypodiploid nuclei, both by flow cytometry."}, "[6]": {"conditions": "Jurkat cells, staurosporine 2.5 μM"}, "[7]": {"conditions": "Jurkat T-cells, 100 μM and 250 μM, 18 h"}}}
{"compound": "COc1cc([C@@H]2c3cc4c(cc3[C@@H](O[C@@H]3O[C@@H]5CO[C@@H](C)O[C@H]5[C@H](O)[C@H]3O)[C@H]3COC(=O)[C@H]23)OCO4)cc(OC)c1O", "note": "[etoposide]", "values": [{"measurement": "cytochrome c in the cell culture medium", "setting": "[1]; [6]", "value": "large amounts of cytochrome c"}]}
{"compound": "COc1cccc2c1C(=O)c1c(O)c3c(c(O)c1C2=O)C[C@@](O)(C(=O)CO)C[C@@H]3O[C@H]1C[C@H](N)[C@H](O)[C@H](C)O1", "note": "[doxorubicin]", "values": [{"measurement": "cytochrome c in the cell culture medium", "setting": "[1]; [6]", "value": "large amounts of cytochrome c"}]}
{"compound": "benzyloxycarbonyl-Val-Ala-Asp-fluoromethylketone [zVAD-fmk]", "values": [{"measurement": "extracellular cytochrome c release", "setting": "[2]", "value": "not during necrotic cell death"}, {"measurement": "mode of cell death (hypodiploid nuclei, PI uptake)", "setting": "[3]", "value": "resulted in necrosis"}]}
{"compound": "CN[C@@H]1C[C@H]2O[C@@](C)([C@@H]1OC)n1c3ccccc3c3c4c(c5c6ccccc6n2c5c31)C(=O)NC4", "note": "[staurosporine]", "values": [{"measurement": "cytochrome c in the cell culture medium", "setting": "[1]; [6]", "value": "large amounts of cytochrome c"}, {"measurement": "time at which cytochrome c could be detected in the extracellular medium", "setting": "[1]; [6]", "value": "one hour"}, {"measurement": "LDH detected in the supernatants, percentage of total LDH", "setting": "[4]", "value": "about 20%"}, {"measurement": "time until formation of hypodiploid nuclei after triggering apoptosis", "setting": "[5]; [6]", "value": "≥ 5", "unit": "h"}]}
{"compound": "OO", "note": "[hydrogen peroxide]", "values": [{"measurement": "cytochrome c release into the extracellular cell culture medium", "setting": "[1]; [7]", "value": "no cytochrome c release"}, {"measurement": "mode of cell death (PI uptake, hypodiploid nuclei)", "setting": "[5]; [7]", "value": "induced necrotic death"}]}
